Test results reported in US20260217697A1, “COMPOUNDS COMPRISING HETEROARYL RINGS AND COMPOSITIONS AND METHODS THEREOF” (lonGen Therapeutics Co., Ltd., priority 2022, published 2026).

Target: T1, hTRPV3 (Homo sapiens, UniProt Q8NET8)
T1 construct: The commercially available plasmid with the full-length cDNA of hTRPV3 (791 aa) (NM_001258205.2); host or cells: HEK293T
T1 sequence (Q8NET8 1-791 isoform Q8NET8-2): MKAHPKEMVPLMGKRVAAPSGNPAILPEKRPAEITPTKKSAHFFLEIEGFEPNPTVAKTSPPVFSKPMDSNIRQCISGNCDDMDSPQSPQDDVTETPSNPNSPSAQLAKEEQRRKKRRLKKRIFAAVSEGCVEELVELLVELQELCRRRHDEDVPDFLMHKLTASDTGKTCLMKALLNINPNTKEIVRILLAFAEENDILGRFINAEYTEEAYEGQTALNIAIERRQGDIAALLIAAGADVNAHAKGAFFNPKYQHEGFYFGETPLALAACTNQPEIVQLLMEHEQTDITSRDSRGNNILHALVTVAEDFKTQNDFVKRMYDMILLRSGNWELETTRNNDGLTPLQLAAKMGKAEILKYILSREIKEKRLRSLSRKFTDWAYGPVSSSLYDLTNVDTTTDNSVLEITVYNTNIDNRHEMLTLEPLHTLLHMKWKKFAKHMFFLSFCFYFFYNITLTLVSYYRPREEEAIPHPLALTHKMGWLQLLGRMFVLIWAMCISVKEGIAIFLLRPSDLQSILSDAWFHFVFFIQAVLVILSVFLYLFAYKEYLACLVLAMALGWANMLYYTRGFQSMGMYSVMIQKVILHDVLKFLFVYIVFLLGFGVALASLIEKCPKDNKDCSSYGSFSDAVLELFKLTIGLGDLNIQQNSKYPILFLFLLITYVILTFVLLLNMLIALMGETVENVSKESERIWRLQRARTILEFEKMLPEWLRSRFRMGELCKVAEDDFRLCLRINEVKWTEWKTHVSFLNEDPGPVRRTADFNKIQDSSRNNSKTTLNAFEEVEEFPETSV
Experiment: Whole-cell patch-clamp recording of hTRPV3 current in transfected HEK293T cells (2-APB induced)
Type: cell-based
Details: current induced by 300 μM 2-APB, compounds tested up to 10 μM, room temperature
Procedure, shortened: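 HEK293T cells transiently expressing full-length hTRPV3, recorded by whole-cell patch clamp 18 h post-transfection at room temperature, with 130 mM NaCl/0.3 mM EDTA/3 mM HEPES pH 7.4 on both sides. Holding potential 0 mV; 400-ms steps to +80 and −80 mV every 2 s. Block of 2-APB-evoked current, tested up to 10 μM, fitted to Hill equation for IC50.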

Row | SMILES | IC50
1 | COc1ncnc(OC)c1C(=O)Nc1nc2c(s1)C1(CCN(C(C)C)CC1)Oc1cc(C(F)(F)F)ccc1-2 [compound 152, N-(1′-isopropyl-7-(trifluoromethyl)spiro[chromeno[4,3-d]thiazole-4,4′-piperidin]-2-yl)-4,6-dimethoxypyrimidine-5-carboxamide] | 100 to 1000 nM
2 | COc1ncnc(OC)c1C(=O)Nc1nc2c(s1)C1(CN(C3(OC)CC3)C1)Oc1cc(C(F)(F)F)ccc1-2 [compound 153, 4,6-dimethoxy-N-(1-(1-methoxycyclopropyl)-7′-(trifluoromethyl)spiro[azetidine-3,4′-chromeno[4,3-d]thiazol]-2′-yl)pyrimidine-5-carboxamide] | < 100 nM
3 | COc1ncnc(OC)c1C(=O)Nc1nc2c(s1)C1(CCN(C3CC3)CC1)Oc1cc(C(F)(F)F)ccc1-2 [compound 154] | 100 to 1000 nM
4 | COc1ncnc(OC)c1C(=O)Nc1nc2c(s1)C1(CCN(CC(C)C)CC1)Oc1cc(C(F)(F)F)ccc1-2 [compound 155, N-(1′-isobutyl-7-(trifluoromethyl)spiro[chromeno[4,3-d]thiazole-4,4′-piperidin]-2-yl)-4,6-dimethoxypyrimidine-5-carboxamide] | < 100 nM
5 | COc1ncnc(OC)c1C(=O)Nc1nc2c(s1)C1(CN(C(=O)OC(C)(C)C)C1)Oc1cnccc1-2 [compound 156, tert-butyl 2′-(4,6-dimethoxypyrimidine-5-carboxamido)spiro[azetidine-3,4′-thiazolo[4′,5′: 4,5]pyrano[2,3-c]pyridine]-1-carboxylate] | 1000 to 10000 nM
6 | COCCN1CC2(C1)Oc1cc(C(F)(F)F)ccc1-c1nc(NC(=O)c3c(OC)ncnc3OC)sc12 [compound 157, 4,6-dimethoxy-N-(1-(2-methoxyethyl)-7′-(trifluoromethyl)spiro[azetidine-3,4′-chromeno[4,3-d]thiazol]-2′-yl)pyrimidine-5-carboxamide] | < 100 nM
7 | CCC1(CC)Oc2cc(C(F)(F)F)ccc2-c2nc(NC(=O)c3c(OC)nc(OC)nc3OC)sc21 [compound 158, N-(4,4-diethyl-7-(trifluoromethyl)-4H-chromeno[4,3-d]thiazol-2-yl)-2,4,6-trimethoxypyrimidine-5-carboxamide] | ≥ 10000 nM
8 | COc1ncnc(OC)c1C(=O)Nc1nc2c(s1)C1(CN(C3CCC3)C1)Oc1cc(C(F)(F)F)ccc1-2 [compound 159, N-(1-cyclobutyl-7′-(trifluoromethyl)spiro[azetidine-3,4′-chromeno[4,3-d]thiazol]-2′-yl)-4,6-dimethoxypyrimidine-5-carboxamide] | < 100 nM
9 | COc1ncnc(OC)c1C(=O)Nc1nc2c(s1)C1(CN(C3COC3)C1)Oc1cc(C(F)(F)F)ccc1-2 [compound 160, 4,6-dimethoxy-N-(1-(oxetan-3-yl)-7′-(trifluoromethyl)spiro[azetidine-3,4′-chromeno[4,3-d]thiazol]-2′-yl)pyrimidine-5-carboxamide] | 100 to 1000 nM
10 | CCC1(CC)Oc2cc(C(F)(F)F)ccc2-c2nc(NC(=O)c3c(OC)nn(C)c3Br)sc21 [compound 161, 5-bromo-N-(4,4-diethyl-7-(trifluoromethyl)-4H-chromeno[4,3-d]thiazol-2-yl)-3-methoxy-1-methyl-1H-pyrazole-4-carboxamide] | ≥ 10000 nM
11 | CCC1(CC)Oc2cc(C(F)(F)F)ccc2-c2nc(NC(=O)c3c(OC)nc(C)nc3OC)sc21 [compound 162, N-(4,4-diethyl-7-(trifluoromethyl)-4H-chromeno[4,3-d]thiazol-2-yl)-4,6-dimethoxy-2-methylpyrimidine-5-carboxamide] | 1000 to 10000 nM
12 | COC(=O)CN1CC2(C1)Oc1cc(C(F)(F)F)ccc1-c1nc(NC(=O)c3c(OC)ncnc3OC)sc12 [compound 163] | < 100 nM
13 | COc1ncnc(OC)c1C(=O)Nc1nc2c(s1)C1(CN(CCN(C)C)C1)Oc1cc(C(F)(F)F)ccc1-2 [compound 164, N-(1-(2-(dimethylamino)ethyl)-7′-(trifluoromethyl)spiro[azetidine-3,4′-chromeno[4,3-d]thiazol]-2′-yl)-4,6-dimethoxypyrimidine-5-carboxamide] | 1000 to 10000 nM
14 | COc1ncnc(OC)c1C(=O)Nc1nc2c(s1)C1(CN(CC(=O)O)C1)Oc1cc(C(F)(F)F)ccc1-2 [compound 165] | ≥ 10000 nM
15 | COc1ncnc(OC)c1C(=O)Nc1nc2c(s1)C1(CN(CCO)C1)Oc1cc(C(F)(F)F)ccc1-2 [compound 166, N-(1-(2-hydroxyethyl)-7′-(trifluoromethyl)spiro[azetidine-3,4′-chromeno[4,3-d]thiazol]-2′-yl)-4,6-dimethoxypyrimidine-5-carboxamide] | 100 to 1000 nM
16 | COc1ncnc(OC)c1C(=O)Nc1nc2c(s1)C1(CN(C(C)(C)CC(C)=O)C1)Oc1cc(C(F)(F)F)ccc1-2 [compound 167, 4,6-dimethoxy-N-(1-(2-methyl-4-oxopentan-2-yl)-7′-(trifluoromethyl)spiro[azetidine-3,4′-chromeno[4,3-d]thiazol]-2′-yl)pyrimidine-5-carboxamide] | 100 to 1000 nM
17 | COc1ncnc(OC)c1C(=O)Nc1nc2c([se]1)C1(CN(C(=O)OC(C)(C)C)C1)Oc1cc(C(F)(F)F)ccc1-2 [compound 168, tert-butyl 2′-(4,6-dimethoxypyrimidine-5-carboxamido)-7′-(trifluoromethyl)spiro[azetidine-3,4′-chromeno[4,3-d][1,3]selenazole]-1-carboxylate] | 100 to 1000 nM
